# In patent publication US12552732B2, “Cyclopropanated sandalwood type compounds” (Symrise AG, priority 2020, dated 2026):
# Columns and labels:
# [1] = Chemical stability in citric acid-based cleaner pH 2 (SPME GC-MS); format: physicochemical; details: for acid-stability compared with Javanol: 0.3% in citric acid-based cleaner pH 2, 14 days, 6, 22, 40 and 50 °C, versus fresh sample
# Experimental: In order to analyse the stability of the inventive compounds, different samples each containing 0.3% of either compound 3a, compound 3b or Javanol® (Givaudan), respectively, in a citric acid-based cleaner having a pH of 2 were analysed, i.e., the stability test was carried out using a representative acidic cleaner (pH=2) in which the corresponding fragrance compounds were incorporated in an amount of 0.3% relative to the acidic cleaner.
# The stability was analysed via solid-phase microextraction (SPME) and coupled gas chromatography-mass spectrometry (GC-MS) by using a combination of polydimethylsiloxane and divinylbenzene as SPME fibre coating (PDMS/DVB fibre) and a polydimethylsiloxane-based DB-1 column for gas chromatography (100% polydimethylsiloxane) for each sample containing one of the fragrance compounds as indicated above. The stability was tested for various samples after 14 days of acidic treatment at different storage temperatures (6° C., 22° C., 40° C. and 50° C.) in comparison to a freshly prepared sample as reference (see FIGURE).
# [2] = Odour detection threshold (ODT), olfactometer TO8, expert panel, DIN EN 13725; details: for ODT (odour detection threshold): olfactometer TO8, panel of at least four experts
# Source text: The odour detection threshold is defined as the lowest concentration of a certain odorous compound (gaseous and sensorially active substance) which is perceivable and thus which can be distinguished with certainty from a blank reference under standard conditions. Generally, lower ODT values are preferred as a lower amount of the corresponding fragrance compound is required in order to a achieve an intense odour impressions and thus overall lower amounts can be used for perfuming. However, as the threshold depends on various factors such as concentration, solubility, partition coefficient between air and the olfactory active substance, vapor pressure and the like, predictions referring to the ODT of a substance, i.e. a fragrance material are difficult to make. The ODT was measured using an olfactometer TO8 and a panel of at least four experts according to DIN standard EN 13725.
"acid-stability at 22 °C ([1]; 0.3% in citric acid-based cleaner pH 2, 14 days, 22 °C)","decomposition at 50 °C ([1]; 0.3% in citric acid-based cleaner pH 2, 14 days, 50 °C)",Structure (SMILES),acid-stability compared with Javanol [1],ODT (odour detection threshold) [2],"decomposition at moderate temperatures ([1]; 0.3% in citric acid-based cleaner pH 2, 14 days, moderate temperatures)","chemical stability under acidic conditions ([1]; acidic conditions, general statement)",factor by which threshold value is lower than Javanol ([2]; ODT compared with Javanol (Givaudan))
Best stabilities,–,"CCC(CO)C1CC1C1CC2CC2(C)C1(C)C (stereo not shown) [Compound 3a, 2-[2-(1,2,2-trimethyl-3-bicyclo[3.1.0]hexanyl)cyclopropyl]butan-1-ol]",better acid-stability over the whole temperature range,0.000244 ppm (v/v),–,–,–
–,fully decomposes,"CC1(CO)CC1CC1CC2CC2(C)C1(C)C (stereo not shown) [Javanol®, [1-methyl-2-[(1,2,2-trimethyl-3-bicyclo[3.1.0]hexanyl)methyl]cyclo-propyl]methanol, reference compound]",–,0.000104 ppm (v/v),seems to decompose quickly even at moderate temperatures,not chemically stable under acidic conditions,–
–,–,"CC(CO)C1CC1C1CC2CC2(C)C1(C)C (stereo not shown) [Compound 3b, 2-[2-(1,2,2-trimethyl-3-bicyclo[3.1.0]hexanyl)cyclo-propyl]propan-1-ol]",better acid-stability over the whole temperature range,0.0000165 ppm (v/v),–,–,about 6.5
